Results taken from US5686486A, “4-hydroxy-benzopyran-2-ones and 4-hydroxy-cycloalkyl[b]pyran-2-ones useful to treat retroviral infections” (priority 1995, dated 1997).
Where two headings read alike, the source gives them in different places.

Target: HIV-1 protease (Human immunodeficiency virus type 1 group M subtype B, UniProt P04585)
Experiment: biochemical
Conditions: for inhibition at 0.123 µM: read-out: HIV-1 Protease % Inhib, dose 0.123 uM
In short: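 Biotinylated, FITC-labeled peptide substrate (20 μl of 0.2 μM) incubated with HIV-1 protease (10 μl of 0.1 μM) and compound in 0.1 M sodium acetate pH 5.5, 1.0 M NaCl, 0.05% NP-40, 1 h, room temperature, dark. Streptavidin beads then capture uncleaved substrate; filtered labeled product read by fluorescence, giving percent inhibition.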

[1] = read-out: HIV-1 Protease % Inhib, dose 0.370 uM
[2] = read-out: HIV-1 Protease % Inhib, dose 1.100 uM
[3] = read-out: HIV-1 Protease % Inhib, dose 3.300 uM
[4] = read-out: HIV-1 Protease % Inhib, dose 10.000 uM
[5] = read-out: HIV-1 Protease % Inhib, dose 30.000 uM
[6] = dose 3.300 uM, read-out: HIV-1 Protease % Inhib
[7] = dose 10.000 uM, read-out: HIV-1 Protease % Inhib
[8] = dose 30.000 uM, read-out: HIV-1 Protease % Inhib
[9] = dose 1.100 uM, read-out: HIV-1 Protease % Inhib
[10] = dose 0.370 uM, read-out: HIV-1 Protease % Inhib

Row | SMILES | inhibition at 0.123 µM [%] | inhibition at 0.37 µM [1] [%] | inhibition at 1.1 µM [2] [%] | inhibition at 3.3 µM [3] [%] | inhibition at 10 µM [4] [%] | inhibition at 30 µM [5] [%] | inhibition at 3.3 µM [6] [%] | inhibition at 10 µM [7] [%] | inhibition at 30 µM [8] [%] | inhibition at 1.1 µM [9] [%] | inhibition at 0.37 µM [10] [%] | HIV-1 Protease % Inhib (dose 1.100 uM) [%] | HIV-1 Protease % Inhib (dose 3.300 uM) [%] | HIV-1 Protease % Inhib (dose 10.000 uM) [%] | HIV-1 Protease % Inhib (dose 30.000 uM) [%]
1 | COc1ccc(S(=O)(=O)Nc2cccc(C(c3c(O)c4c(oc3=O)CCCCCC4)C3CC3)c2)cc1 (centres unmarked) [Example 275, N-[3-[Cyclopropyl(5,6,7,8,9, 10-hexahydro-4-hydroxy-2-oxo-2H-cycloocta[b]pyran-3-yl)methyl]phenyl]-4-methoxy-benzenesulfonamide] | 79.3 | 120 | 128 | 131 | 133 | 131 |  |  |  |  |  |  |  |  | 
2 | O=C(O)c1ccc(S(=O)(=O)Nc2cccc(C(c3c(O)c4c(oc3=O)CCCCCC4)C3CC3)c2)cc1 (centres unmarked) [Example 276, 4-[[[3-[Cyclopropyl(5,6,7,8,9,10-hexahydro-4-hydroxy-2-oxo-2H-cycloocta[b]pyran-3-yl)methyl]phenyl]amino]sulfonyl]-benzoic acid] | 53.4 | 92.8 | 99.3 | 94.7 | 112 | 124 |  |  |  |  |  |  |  |  | 
3 | Cc1cc(C)c(S(=O)(=O)Nc2cccc(C(c3c(O)c4c(oc3=O)CCCCCC4)C3CC3)c2)c(C)c1 (centres unmarked) [Example 277, N-[3-[Cyclopropyl(5,6,7,8,9,10-hexahydro-4-hydroxy-2-oxo-2H-cycloocta[b]pyran-3-yl)methyl]phenyl]-2,4,6-trimethyl-benzenesulfonamide] |  |  |  |  |  |  | 37.9 | 79.9 | 94.1 |  |  |  |  |  | 
4 | O=c1oc2c(c(O)c1C(c1cccc(NS(=O)(=O)c3ccc(F)cc3F)c1)C1CC1)CCCCCC2 (centres unmarked) [Example 279, N-[3-[Cyclopropyl(5,6,7,8,9,10-hexahydro-4-hydroxy-2-oxo-2H-cycloocta[b]pyran-3-yl)methyl]phenyl]-2,4-difluoro-benzenesulfonamide] | 78.2 | 97.3 | 105 | 103 | 109 | 94.8 |  |  |  |  |  |  |  |  | 
5 | CCCCOc1ccc(S(=O)(=O)Nc2cccc(C(c3c(O)c4c(oc3=O)CCCCCC4)C3CC3)c2)cc1 (centres unmarked) [Example 282, 4-Butoxy-N-[3-[cyclopropyl(5,6,7,8,9,10-hexahydro-4-hydroxy-2-oxo-2H-cycloocta[b]pyran-3-yl)methyl]phenyl]-benzenesulfonamide] |  |  |  |  |  |  | 43.2 | 65.3 | 96.3 | 10.6 |  |  |  |  | 
6 | CN(C)c1cccc2c(S(=O)(=O)Nc3cccc(C(c4c(O)c5c(oc4=O)CCCCCC5)C4CC4)c3)cccc12 (centres unmarked) [Example 283, N-[3-[Cyclopropyl(5,6,7,8,9,10-hexahydro4-hydroxy-2-oxo-2H-cycloocta[b]pyran-3-yl)methyl]phenyl]-5-(dimethylamino)-1-naphthalenesulfonamide] |  |  |  |  |  |  | 64.2 | 85.1 | 80.2 | 42.3 | 10.6 |  |  |  | 
7 | O=c1oc2c(c(O)c1C(c1cccc(NS(=O)(=O)c3cccc(Cl)c3Cl)c1)C1CC1)CCCCCC2 (centres unmarked) [Example 285, 2,3-Dichloro-N-[3-[cyclopropyl(5,6,7,8,9,10-hexahydro4-hydroxy-2-oxo-2H-cycloocta[b]pyran-3-yl)methyl]phenyl]-benzenesulfonamide] | 37.6 | 73.8 | 84.6 | 95 | 97.7 | 91.8 |  |  |  |  |  |  |  |  | 
8 | Cc1cccc(Cl)c1S(=O)(=O)Nc1cccc(C(c2c(O)c3c(oc2=O)CCCCCC3)C2CC2)c1 (centres unmarked) [Example 287, 2-Chloro-N-[3-[cyclopropyl(5,6,7,8,9,10-hexahydro4-hydroxy-2-oxo-2H-cycloocta[b]pyran-3-yl)methyl]phenyl]-6-methyl-benzenesulfonamide] |  |  |  |  |  |  | 68.2 | 85.8 | 86.7 | 44.1 | 14.1 | 36.69 | 64.32 | 92.75 | 106.21
9 | O=c1oc2c(c(O)c1C(c1cccc(NS(=O)(=O)c3cc(Cl)cc(Cl)c3)c1)C1CC1)CCCCCC2 (centres unmarked) [Example 288, 3,5-Dichloro-N-[3-[cyclopropyl(5,6,7,8,9,10-hexahydro-4-hydroxy-2-oxo-2H-cycloocta[b]pyran-3-yl)methyl]phenyl]-benzenesulfonamide] | 46.9 | 79.1 | 90.5 | 92.9 | 105 | 101 |  |  |  |  |  |  |  |  | 
10 | O=c1oc2c(c(O)c1C(c1cccc(NS(=O)(=O)c3cccc(Cl)c3)c1)C1CC1)CCCCCC2 (centres unmarked) [Example 289] | 63.7 | 80 | 91.1 | 97.3 | 95.3 | 101 |  |  |  |  |  |  |  |  | 
11 | O=c1oc2c(c(O)c1C(c1cccc(NS(=O)(=O)c3cccc(Br)c3)c1)C1CC1)CCCCCC2 (centres unmarked) [Example 291, 3-Bromo-N-[3-[cyclopropyl(5,6,7,8,9,10-hexahydro-4-hydroxy-2-oxo-2H-cycloocta[b]pyran-3-yl)methyl]phenyl]-benzenesulfonamide] | 80.4 | 108 | 109 | 122 | 118 | 117 |  |  |  |  |  |  |  |  | 
12 | O=C(O)c1cccc(S(=O)(=O)Nc2cccc(C(c3c(O)c4c(oc3=O)CCCCCC4)C3CC3)c2)c1 (centres unmarked) [Example 292, 3-[[[3-[Cyclopropyl(5,6,7,8,9,10-hexahydro4-hydroxy-2-oxo-2H-cycloocta[b]pyran-3-yl)methyl]phenyl]amino]sulfonyl]-benzoic acid] | 74.4 | 104 | 111 | 125 | 115 | 111 |  |  |  |  |  |  |  |  | 
13 | O=c1oc2c(c(O)c1C(c1cccc(NS(=O)(=O)c3ccccc3Cl)c1)C1CC1)CCCCCC2 (centres unmarked) [Example 293, 2-Chloro-N-[3-[cyclopropyl(5,6,7,8,9,10-hexahydro-4-hydroxy-2-oxo-2H-cycloocta[b]pyran-3-yl)methyl]phenyl]-benzenesulfonamide] | 54.9 | 82.4 | 96.8 | 107 | 105 | 109 |  |  |  |  |  |  |  |  | 
14 | O=c1oc2c(c(O)c1C(c1cccc(NS(=O)(=O)c3c(Cl)cccc3Cl)c1)C1CC1)CCCCCC2 (centres unmarked) [Example 295, 2,6-Dichloro-N-[3-[cyclopropyl(5,6,7,8,9,10-hexahydro-4-hydroxy-2'-oxo-2H-cycloocta[b]pyran-3-yl)methyl]phenyl]-benzenesulfonamide] |  |  |  |  |  |  | 57 | 87.5 | 100 | 25.9 |  |  |  |  | 
15 | Cn1cnc(S(=O)(=O)Nc2cccc([C@@H](c3c(O)c4c(oc3=O)CCCCCC4)C3CC3)c2)c1 [Example 297, N-[3-[Cyclopropyl(5,6,7,8,9,10-hexahydro-4-hydroxy-2-oxo-2H-cycloocta-3-yl)methyl]phenyl]-1-methyl-(S)-1H-imidazole-4-sulfonamide] | 72 | 86 | 101 | 99.8 | 102 | 99.5 |  |  |  |  |  |  |  |  | 
16 | O=c1oc2c(c(O)c1C(c1cccc(NS(=O)(=O)c3ccc(I)cc3)c1)C1CC1)CCCCCC2 (centres unmarked) [Example 300, N-[3-[Cyclopropyl(5,6,7,8,9,10-hexahydro-4-hydroxy-2-oxo-2H-cycloocta[b]pyran-3-yl)methyl]phenyl]-4-iodo-benzenesulfonamide] | 68.8 | 92.2 | 101 | 102 | 108 | 108 |  |  |  |  |  |  |  |  | 
17 | O=c1oc2c(c(O)c1C(c1cccc(NS(=O)(=O)c3ccc(Cl)cc3Cl)c1)C1CC1)CCCCCC2 (centres unmarked) [Example 305, 2,4-Dichloro-N-[3-[cyclopropyl(5,6,7,8,9,10-hexahydro-4-hydroxy-2'-oxo-2H-cycloocta[b]pyran-3-yl)methyl]phenyl]-benzenesulfonamide] | 60.4 | 86.2 | 92.4 | 95.2 | 99.8 | 107 |  |  |  |  |  |  |  |  | 
18 | O=c1oc2c(c(O)c1C(c1cccc(NS(=O)(=O)c3c(Cl)cc(Cl)cc3Cl)c1)C1CC1)CCCCCC2 (centres unmarked) [Example 306, 2,4,6-Trichloro-N-[3-[cyclopropyl(5,6,7,8,9,10-hexahydro-4-hydroxy-2-oxo-2H-cycloocta[b]pyran-3-yl)methyl]phenyl]-benzenesulfonamide] |  |  |  |  |  |  | 53.2 | 74.5 | 86.2 | 24.4 |  |  |  |  | 
19 | CS(=O)(=O)Nc1cccc(C(c2c(O)c3c(oc2=O)CCCCCC3)C2CC2)c1 (centres unmarked) [Example 317, N-[3-[Cyclopropyl(5,6,7,8,9,10-hexahydro-4-hydroxy-2-oxo-2H-cycloocta[b]pyran-3-yl)methyl]phenyl]-methanesulfonamide] | 27.8 | 46.7 | 81.7 | 101 | 102 | 113 |  |  |  |  |  |  |  |  | 
